From the supplement of paper PMC4862054

Experiments:
Test in all cases: normalised viability (% of control), CellTiter-Blue; higher = more viable cells (about 100 = DMSO control)
Settings in all cases: incubation time: 72 h
CAL-148 [1] = tested on: CAL-148
Method: (§1)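 DSRT, CellTiter-Blue viability, 72 h incubation. Signal is normalised to DMSO and benzethonium chloride controls. Value is the normalised response at dose 8.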

DU-4475 [2] = tested on: DU-4475
Method: as §1

CAL-85-1 [3] = tested on: CAL-85-1
Method: as §1

CAL-51 [4] = tested on: CAL-51
Method: as §1

MDA-MB-453 [5] = tested on: MDA-MB-453
Method: as §1

HDQ-P1 [6] = tested on: HDQ-P1
Method: as §1

MDA-MB-231 = tested on: MDA-MB-231
Procedure, shortened: (§2)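 384-well plates were pre-loaded with compound in 5 µl medium before 20 µl of breast cancer cell suspension was seeded. Following 72 h incubation, 2.5 µl CellTiter-Blue reagent was added for 2 h at 37 °C. Fluorescence was read at 560/590 nm and plates were normalised to vehicle (100) and a positive kill control (0), checked by Z'-factor. Normalised viability is reported at a single listed concentration of the series.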

CAL-148 [7] = tested on: CAL-148; remark: listed apart in the source
Procedure, shortened: as §2

MDA-MB-436 = tested on: MDA-MB-436
Procedure, shortened: as §2

CAL-120 = tested on: CAL-120
Procedure, shortened: as §2

BT-474 = tested on: BT-474
Procedure, shortened: as §2

HCC1143 = tested on: HCC1143
Procedure, shortened: as §2

MDA-MB-468 = tested on: MDA-MB-468
Procedure, shortened: as §2

BT-549 = tested on: BT-549
Procedure, shortened: as §2

HCC1599 = tested on: HCC1599
Procedure, shortened: as §2

SK-BR-3 = tested on: SK-BR-3
Procedure, shortened: as §2

DU-4475 [8] = tested on: DU-4475; remark: listed apart in the source
Procedure, shortened: as §2

CAL-85-1 [9] = tested on: CAL-85-1; remark: listed apart in the source
Procedure, shortened: as §2

MFM-223 = tested on: MFM-223
Procedure, shortened: as §2

CAL-51 [10] = tested on: CAL-51; remark: listed apart in the source
Procedure, shortened: as §2

MDA-MB-453 [11] = tested on: MDA-MB-453; remark: listed apart in the source
Procedure, shortened: as §2

Hs578T = tested on: Hs578T
Procedure, shortened: as §2

HDQ-P1 [12] = tested on: HDQ-P1; remark: listed apart in the source
Procedure, shortened: as §2

CAL-148 [13] = tested on: CAL-148; remark: listed apart in the source
Method: (§3)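 DSRT, CellTiter-Blue viability, 72 h incubation. Signal is normalised to DMSO and benzethonium chloride controls. Value is the normalised response at dose 6.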

CAL-85-1 [14] = tested on: CAL-85-1; remark: listed apart in the source
Method: as §3

MDA-MB-453 [15] = tested on: MDA-MB-453; remark: listed apart in the source
Method: as §3

C=CC(=O)Nc1cc2c(Nc3ccc(F)c(Cl)c3)ncnc2cc1OCCCN1CCOCC1 [Canertinib]
Settings | normalised viability [%]
BT-474, 10 nM | 93.7
BT-474, 1000 nM | 34.4
BT-474, 10000 nM | 16.3
BT-549, 10 nM | 103
BT-549, 1000 nM | 90.7
BT-549, 10000 nM | 2.56
CAL-51 [4], 3000 nM | 79.9
CAL-51 [10], 3 nM | 110
CAL-51 [10], 30 nM | 105
CAL-51 [10], 100 nM | 105
CAL-85-1 [3], 3000 nM | 34.3
CAL-85-1 [9], 3 nM | 82.5
CAL-85-1 [9], 30 nM | 67
CAL-85-1 [9], 100 nM | 64.2
CAL-85-1 [14], 300 nM | 54
CAL-120, 10 nM | 79.9
CAL-120, 1000 nM | 72.5
CAL-120, 10000 nM | 6.63
CAL-148 [1], 3000 nM | 60
CAL-148 [7], 3 nM | 81.8
CAL-148 [7], 30 nM | 88.8
CAL-148 [7], 100 nM | 75.6
CAL-148 [13], 300 nM | 81.2
DU-4475 [2], 3000 nM | 103
DU-4475 [8], 3 nM | 107
DU-4475 [8], 30 nM | 113
DU-4475 [8], 100 nM | 96.8
HCC1143, 10 nM | 74.9
HCC1143, 1000 nM | 89
HCC1143, 10000 nM | 22.6
HCC1599, 10 nM | 96.2
HCC1599, 1000 nM | 106
HCC1599, 10000 nM | 43.9
HDQ-P1 [6], 3000 nM | 27.5
HDQ-P1 [12], 3 nM | 106
HDQ-P1 [12], 30 nM | 90.6
HDQ-P1 [12], 100 nM | 76
Hs578T, 10 nM | 96
Hs578T, 1000 nM | 108
Hs578T, 10000 nM | 1.26
MDA-MB-231, 10 nM | 91.4
MDA-MB-231, 1000 nM | 70.6
MDA-MB-231, 10000 nM | 6.79
MDA-MB-436, 10 nM | 139
MDA-MB-436, 1000 nM | 43.5
MDA-MB-436, 10000 nM | 10.5
MDA-MB-453 [5], 3000 nM | 28.2
MDA-MB-453 [11], 3 nM | 105
MDA-MB-453 [11], 30 nM | 86.9
MDA-MB-453 [11], 100 nM | 72.6
MDA-MB-453 [15], 300 nM | 48.6
MDA-MB-468, 10 nM | 89.2
MDA-MB-468, 1000 nM | 52.9
MDA-MB-468, 10000 nM | 1.77
MFM-223, 10 nM | 94.8
MFM-223, 1000 nM | 78.6
MFM-223, 10000 nM | 19.7
SK-BR-3, 10 nM | 71.9
SK-BR-3, 1000 nM | 19.9
SK-BR-3, 10000 nM | 12.9

O=C(O)C1(C(=O)O)CCC1.[NH2-].[NH2-].[Pt+2] [Carboplatin]
Settings | normalised viability [%]
BT-474, 10 nM | 127
BT-474, 1000 nM | 121
BT-474, 10000 nM | 113
BT-549, 10 nM | 83.4
BT-549, 1000 nM | 92
BT-549, 10000 nM | 87.7
CAL-51 [4], 3000 nM | 115
CAL-51 [10], 3 nM | 104
CAL-51 [10], 30 nM | 99
CAL-51 [10], 100 nM | 96.2
CAL-85-1 [3], 3000 nM | 87.7
CAL-85-1 [9], 3 nM | 98
CAL-85-1 [9], 30 nM | 82.2
CAL-85-1 [9], 100 nM | 99.6
CAL-85-1 [14], 300 nM | 86.1
CAL-120, 10 nM | 87
CAL-120, 1000 nM | 95.4
CAL-120, 10000 nM | 78.3
CAL-148 [1], 3000 nM | 86
CAL-148 [7], 3 nM | 90
CAL-148 [7], 30 nM | 96
CAL-148 [7], 100 nM | 95.4
CAL-148 [13], 300 nM | 106
DU-4475 [2], 3000 nM | 107
DU-4475 [8], 3 nM | 99
DU-4475 [8], 30 nM | 74.5
DU-4475 [8], 100 nM | 89.4
HCC1143, 10 nM | 79.8
HCC1143, 1000 nM | 87.1
HCC1143, 10000 nM | 87.7
HCC1599, 10 nM | 94.5
HCC1599, 1000 nM | 90.7
HCC1599, 10000 nM | 87.1
HDQ-P1 [6], 3000 nM | 86
HDQ-P1 [12], 3 nM | 108
HDQ-P1 [12], 30 nM | 107
HDQ-P1 [12], 100 nM | 103
Hs578T, 10 nM | 105
Hs578T, 1000 nM | 94.1
Hs578T, 10000 nM | 109
MDA-MB-231, 10 nM | 85.8
MDA-MB-231, 1000 nM | 113
MDA-MB-231, 10000 nM | 93.7
MDA-MB-436, 10 nM | 80.3
MDA-MB-436, 1000 nM | 95.9
MDA-MB-436, 10000 nM | 82.2
MDA-MB-453 [5], 3000 nM | 105
MDA-MB-453 [11], 3 nM | 113
MDA-MB-453 [11], 30 nM | 93.3
MDA-MB-453 [11], 100 nM | 102
MDA-MB-453 [15], 300 nM | 107
MDA-MB-468, 10 nM | 100
MDA-MB-468, 1000 nM | 98.9
MDA-MB-468, 10000 nM | 83.3
MFM-223, 10 nM | 86
MFM-223, 1000 nM | 98.4
MFM-223, 10000 nM | 48.7
SK-BR-3, 10 nM | 100
SK-BR-3, 1000 nM | 103
SK-BR-3, 10000 nM | 113

COc1cc2c(Oc3ccc4[nH]c(C)cc4c3F)ncnc2cc1OCCCN1CCCC1 [Cediranib]
Settings | normalised viability [%]
BT-474, 1 nM | 109
BT-474, 100 nM | 101
BT-474, 1000 nM | 91.1
BT-549, 1 nM | 108
BT-549, 100 nM | 104
BT-549, 1000 nM | 70.8
CAL-51 [4], 300 nM | 90.7
CAL-51 [10], 0.3 nM | 90.5
CAL-51 [10], 3 nM | 88.7
CAL-51 [10], 10 nM | 88.6
CAL-85-1 [3], 300 nM | 103
CAL-85-1 [9], 0.3 nM | 104
CAL-85-1 [9], 3 nM | 96.5
CAL-85-1 [9], 10 nM | 99.8
CAL-85-1 [14], 30 nM | 90.4
CAL-120, 1 nM | 117
CAL-120, 100 nM | 110
CAL-120, 1000 nM | 81.4
CAL-148 [1], 300 nM | 101
CAL-148 [7], 0.3 nM | 103
CAL-148 [7], 3 nM | 92.8
CAL-148 [7], 10 nM | 107
CAL-148 [13], 30 nM | 103
DU-4475 [2], 300 nM | 98.8
DU-4475 [8], 0.3 nM | 103
DU-4475 [8], 3 nM | 80.4
DU-4475 [8], 10 nM | 87.3
HCC1143, 1 nM | 128
HCC1143, 100 nM | 120
HCC1143, 1000 nM | 112
HCC1599, 1 nM | 101
HCC1599, 100 nM | 114
HCC1599, 1000 nM | 76.7
HDQ-P1 [6], 300 nM | 88.3
HDQ-P1 [12], 0.3 nM | 84.8
HDQ-P1 [12], 3 nM | 90.6
HDQ-P1 [12], 10 nM | 100
Hs578T, 1 nM | 110
Hs578T, 100 nM | 106
Hs578T, 1000 nM | 92.2
MDA-MB-231, 1 nM | 84.7
MDA-MB-231, 100 nM | 83.7
MDA-MB-231, 1000 nM | 92
MDA-MB-436, 1 nM | 85.6
MDA-MB-436, 100 nM | 92
MDA-MB-436, 1000 nM | 91.8
MDA-MB-453 [5], 300 nM | 86.2
MDA-MB-453 [11], 0.3 nM | 85.7
MDA-MB-453 [11], 3 nM | 97
MDA-MB-453 [11], 10 nM | 84.7
MDA-MB-453 [15], 30 nM | 75.9
MDA-MB-468, 1 nM | 92.5
MDA-MB-468, 100 nM | 89.7
MDA-MB-468, 1000 nM | 95.2
MFM-223, 1 nM | 99.9
MFM-223, 100 nM | 87
MFM-223, 1000 nM | 47.2
SK-BR-3, 1 nM | 100
SK-BR-3, 100 nM | 95.7
SK-BR-3, 1000 nM | 104
